Measured values from ChEMBL document CHEMBL1201862, “PubChem BioAssay data set” (2004).
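In this assay, cells in 96-well plates receive the compound at five concentrations for 48 hours. Endpoints are linearly interpolated between the surrounding concentrations. GI50 is the concentration that inhibits growth by half.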 Calls of active or inactive are those of the source. No stated cut-off is given here; in the data, active = GI50 up to about 1.1 µM and inactive = higher.

How the values were obtained:
Assay in all cases: NCI anticancer screen, dose series, 48 h
HT-29 = system: HT-29
KM12 = system: KM12
IGROV-1 = system: IGROV-1
A549 = system: A549
HCT-15 = system: HCT-15
SW-620 = system: SW-620
Malme-3M = system: Malme-3M
MDA-MB-435 = system: MDA-MB-435
CAKI-1 = system: CAKI-1
UACC-62 = system: UACC-62
CCRF-CEM = system: CCRF-CEM
OVCAR-8 = system: OVCAR-8
M14 = system: M14
HOP-92 = system: HOP-92
OVCAR-4 = system: OVCAR-4
MOLT-4 = system: MOLT-4
HCT-116 = system: HCT-116
NCI-H23 = system: NCI-H23
UACC-257 = system: UACC-257
SK-MEL-2 = system: SK-MEL-2
DU-145 = system: DU-145
U-251 = system: U-251
NCI-H460 = system: NCI-H460
K562 = system: K562
NCI/ADR-RES = system: NCI/ADR-RES
RXF 393 = system: RXF 393
COLO 205 = system: COLO 205
MDA-MB-231 = system: MDA-MB-231
SF-295 = system: SF-295
SNB-19 = system: SNB-19
OVCAR-5 = system: OVCAR-5
HOP-62 = system: HOP-62
SK-MEL-5 = system: SK-MEL-5
ACHN = system: ACHN
RPMI-8226 = system: RPMI-8226
BT-549 = system: BT-549
EKVX = system: EKVX
HCC 2998 = system: HCC 2998
NCI-H522 = system: NCI-H522
SN12C = system: SN12C
SR = system: SR
786-0 = system: 786-0
NCI-H226 = system: NCI-H226
LOX IMVI = system: LOX IMVI
SNB-75 = system: SNB-75
A498 = system: A498
MDA-N = system: MDA-N
SF-268 = system: SF-268
SK-OV-3 = system: SK-OV-3
PC-3 = system: PC-3
SK-MEL-28 = system: SK-MEL-28
TK-10 = system: TK-10
UO-31 = system: UO-31
OVCAR-3 = system: OVCAR-3
MCF7 = system: MCF7
HL-60 = system: HL-60
Hs-578T = system: Hs-578T
SF-539 = system: SF-539
T47D = system: T47D

Measured: GI50

Cc1sc2nc3n(c(=O)c2c1C)N=CN(c1ccc(Cl)cc1)C3
> 100 µM: HCT-15
inactive: HT-29 > 100 µM | KM12 > 100 µM | IGROV-1 > 100 µM | A549 > 100 µM | SW-620 > 100 µM | Malme-3M 33.3 µM | MDA-MB-435 > 100 µM | CAKI-1 > 100 µM | UACC-62 > 100 µM | CCRF-CEM > 100 µM | OVCAR-8 > 100 µM | M14 > 100 µM | HOP-92 > 100 µM | OVCAR-4 > 100 µM | MOLT-4 > 100 µM | HCT-116 > 100 µM | NCI-H23 > 100 µM | UACC-257 > 100 µM | SK-MEL-2 > 100 µM | DU-145 > 100 µM | U-251 > 100 µM | NCI-H460 > 100 µM | K562 > 100 µM | NCI/ADR-RES > 100 µM | RXF 393 > 100 µM | COLO 205 > 100 µM | MDA-MB-231 > 100 µM | SF-295 > 100 µM | SNB-19 > 100 µM | OVCAR-5 > 100 µM | HOP-62 99.3 µM | SK-MEL-5 > 100 µM | ACHN > 100 µM | RPMI-8226 > 100 µM | BT-549 > 100 µM | EKVX > 100 µM | HCC 2998 > 100 µM | NCI-H522 58.7 µM | SN12C > 100 µM | SR 63.4 µM | 786-0 > 100 µM | NCI-H226 > 100 µM | LOX IMVI > 100 µM | SNB-75 > 100 µM | A498 > 100 µM | MDA-N > 100 µM | SF-268 39.4 µM | SK-OV-3 > 100 µM | PC-3 > 100 µM | SK-MEL-28 > 100 µM | TK-10 > 100 µM | UO-31 > 100 µM | OVCAR-3 > 100 µM

O=C(O)c1cc(/C=C/c2cc(O)ccc2O)ccc1O
inactive: HT-29 > 10 µM | MCF7 3.91 µM | A549 > 10 µM | HL-60 > 10 µM | Hs-578T > 10 µM | SW-620 > 10 µM | Malme-3M > 10 µM | MDA-MB-435 > 10 µM | UACC-62 > 10 µM | CCRF-CEM > 10 µM | OVCAR-8 > 10 µM | M14 > 10 µM | OVCAR-4 > 10 µM | MOLT-4 > 10 µM | NCI-H23 > 10 µM | UACC-257 > 10 µM | SK-MEL-2 > 10 µM | DU-145 > 10 µM | U-251 > 10 µM | NCI-H460 > 10 µM | K562 2.85 µM | NCI/ADR-RES > 10 µM | MDA-MB-231 > 10 µM | SF-295 > 10 µM | SNB-19 > 10 µM | OVCAR-5 > 10 µM | ACHN > 10 µM | SF-539 > 10 µM | BT-549 > 10 µM | EKVX > 10 µM | HCC 2998 > 10 µM | NCI-H522 > 10 µM | SN12C > 10 µM | SR > 10 µM | 786-0 > 10 µM | NCI-H226 > 10 µM | LOX IMVI > 10 µM | MDA-N 3.43 µM | SF-268 > 10 µM | PC-3 > 10 µM | TK-10 > 10 µM | UO-31 > 10 µM | OVCAR-3 > 10 µM
> 10 µM: HCT-15

CC1=C2C(=O)c3ccccc3C2=C(C)S(=O)(=O)O1
inactive: IGROV-1 > 10 µM | MCF7 > 10 µM | A549 > 10 µM | HL-60 > 10 µM | SW-620 > 10 µM | Malme-3M > 10 µM | MDA-MB-435 > 10 µM | CAKI-1 > 10 µM | UACC-62 > 10 µM | CCRF-CEM > 10 µM | M14 > 10 µM | OVCAR-4 > 10 µM | MOLT-4 > 10 µM | NCI-H23 > 10 µM | SK-MEL-2 > 10 µM | U-251 > 10 µM | NCI-H460 > 10 µM | T47D > 10 µM | K562 > 10 µM | NCI/ADR-RES > 10 µM | RXF 393 > 10 µM | COLO 205 > 10 µM | OVCAR-5 > 10 µM | HOP-62 > 10 µM | SK-MEL-5 > 10 µM | ACHN > 10 µM | RPMI-8226 > 10 µM | SR > 10 µM | 786-0 > 10 µM | SNB-75 > 10 µM | SF-268 > 10 µM | SK-OV-3 > 10 µM | SK-MEL-28 > 10 µM

CC1(C)/C(=N\O)C2(C#N)CCC1C2 (configuration not stated)
inactive: KM12 > 100 µM | HL-60 > 100 µM | SW-620 > 100 µM | MDA-MB-435 > 100 µM | CAKI-1 > 100 µM | UACC-62 > 100 µM | CCRF-CEM > 100 µM | OVCAR-8 > 100 µM | HOP-92 > 100 µM | OVCAR-4 > 100 µM | MOLT-4 > 100 µM | NCI-H23 > 100 µM | UACC-257 > 100 µM | U-251 > 100 µM | NCI-H460 > 100 µM | K562 > 100 µM | NCI/ADR-RES > 100 µM | MDA-MB-231 > 100 µM | SNB-19 > 100 µM | ACHN > 100 µM | RPMI-8226 > 100 µM | BT-549 > 100 µM | HCC 2998 > 100 µM | SN12C > 100 µM | SR > 100 µM | NCI-H226 > 100 µM | SNB-75 > 100 µM | A498 > 100 µM | MDA-N > 100 µM | SF-268 > 100 µM | SK-MEL-28 > 100 µM | TK-10 > 100 µM | UO-31 > 100 µM
> 100 µM: HCT-15

CCOC(=O)c1ccc(/N=C2\S/C(=C\C(=S)Nc3ccccc3)N(c3ccccc3)\C2=N/c2ccc(C(=O)OCC)cc2)cc1
> 100 µM: HCT-15
inactive: HT-29 > 100 µM | KM12 > 100 µM | IGROV-1 > 100 µM | MCF7 > 100 µM | A549 > 100 µM | HL-60 > 100 µM | Hs-578T 62.4 µM | SW-620 > 100 µM | Malme-3M 21.6 µM | UACC-62 > 100 µM | CCRF-CEM > 100 µM | OVCAR-8 > 100 µM | M14 34.6 µM | HOP-92 22.8 µM | MOLT-4 > 100 µM | HCT-116 27.2 µM | NCI-H23 > 100 µM | UACC-257 94.2 µM | SK-MEL-2 > 100 µM | K562 > 100 µM | RXF 393 81.5 µM | COLO 205 > 100 µM | MDA-MB-231 > 100 µM | SNB-19 > 100 µM | HOP-62 > 100 µM | SK-MEL-5 40.7 µM | RPMI-8226 > 100 µM | BT-549 62.7 µM | EKVX > 100 µM | HCC 2998 > 100 µM | SN12C > 100 µM | SR > 100 µM | 786-0 82 µM | NCI-H226 > 100 µM | SNB-75 34.5 µM | PC-3 > 100 µM | SK-MEL-28 95.5 µM | TK-10 > 100 µM | UO-31 > 100 µM

CCC[C@@H]1C(=O)N=C(N)N1C(=O)OCc1ccccc1
inactive: HT-29 > 100 µM | KM12 > 100 µM | IGROV-1 > 100 µM | MCF7 > 100 µM | HL-60 > 100 µM | Hs-578T > 100 µM | SW-620 > 100 µM | Malme-3M > 100 µM | MDA-MB-435 > 100 µM | CAKI-1 > 100 µM | UACC-62 > 100 µM | OVCAR-8 > 100 µM | OVCAR-4 > 100 µM | MOLT-4 > 100 µM | HCT-116 > 100 µM | NCI-H23 > 100 µM | UACC-257 > 100 µM | SK-MEL-2 > 100 µM | DU-145 > 100 µM | U-251 > 100 µM | NCI-H460 > 100 µM | K562 > 100 µM | NCI/ADR-RES > 100 µM | RXF 393 > 100 µM | COLO 205 > 100 µM | MDA-MB-231 > 100 µM | SF-295 > 100 µM | SNB-19 > 100 µM | OVCAR-5 > 100 µM | HOP-62 > 100 µM | SK-MEL-5 > 100 µM | ACHN > 100 µM | RPMI-8226 > 100 µM | BT-549 > 100 µM | EKVX > 100 µM | HCC 2998 > 100 µM | NCI-H522 > 100 µM | SN12C > 100 µM | SR > 100 µM | 786-0 > 100 µM | NCI-H226 > 100 µM | LOX IMVI > 100 µM | SNB-75 > 100 µM | A498 > 100 µM | MDA-N > 100 µM | SF-268 > 100 µM | PC-3 > 100 µM | SK-MEL-28 > 100 µM | TK-10 > 100 µM | UO-31 > 100 µM | OVCAR-3 > 100 µM
> 100 µM: HCT-15
